Results taken from patent US6800464B2, “Arthrobacter D-carbamoylase and methods of preparing enantiomerically enriched D-amino acids” (Degussa AG, priority 2001, dated 2004).
Like-named read-outs stand apart in the source and are kept apart here.

Experiments:
purified D-carbamoylase = experiment: Cofactor dependence: inactivation by complexing agents and sulfhydryl reagents, reactivation by metal ions; format: biochemical, Arthrobacter crystallopoietes DSM 20117; details: for inactivation of the enzyme by complexing agent: 10 mM, incubation at 25° C., 8-HQSA: within less than two hours
Description: (§1) The homogeneously purified D-carbamoylase with the His-tag and ttg start codon (pMW1 —FIG. 5) was used for characterization of the enzyme obtained in this way. The enzyme was present in 0.1 M KPB pH 8.0.
In order to be able to differentiate the inactivation by the complexing agent from the thermal inactivation, an aliquot of the enzyme solution was co-incubated without 8-HQSA and the activity was monitored with respect to time. It was concluded that to reactivate the enzyme, the 8-HQSA had to be removed from the enzyme by gel filtration, and incubation had to be carried out in the presence of 2 mM metal ions. However, neither Cu^2+, Co^2+, Mn^2+, Mg^2+, Fe^2+ nor Zn^2+ led to a reactivation of the enzyme.

[1] = target: D-carbamoylase from Arthrobacter crystallopoietes DSM 20117 (Crystallibacter crystallopoietes, UniProt A0A1H1C375); experiment: Substrate specificity of the purified D-carbamoylase (relative conversion of carbamoyl substrates); format: biochemical; details: for Rel. act. / conversion of substrate (in words): 30° C.; for Rel. act.: 0.1 M potassium phosphate buffer pH 8.0, 20 mM isomer mixture or 10 mM pure isomer, D,L-Carbamoyl-phenylalanine set at 100% (2 U/mg); for conversion of substrate (in words): assay conditions of substrate spectrum, pH 8.0
Description: as §1
To determine the substrate spectrum, the enzyme was incubated at a reaction temperature of 30° C. with the particular substrate in the presence of 0.1 M potassium phosphate buffer pH 8.0. To ensure the same concentration of the D-isomer, if the substrate was present as an isomer mixture a concentration of 20 mM was established; if the substrate was present as a pure isomer a concentration of 10 mM was established.

[2] = substrate: NC(=O)N[C@H](Cc1c[nH]c2ccccc12)C(=O)O; experiment: Determination of kinetic parameters (Km, vmax) of the D-carbamoylase; format: biochemical, Arthrobacter crystallopoietes DSM 20117; details: other: Michaelis-Menten kinetics, Enzymfit program; pH 8.0
Description: as §1
For determination of Vmax and Km, the rate of reaction v was plotted as a function of the substrate concentration. The calculation of the kinetic parameters was carried out via the Enzymfit program (developed at the Institute of Bioprocess Technology, University of Stuttgart). […] The reaction can be described here by Michaelis-Menten kinetics (see equation 1). [formula]

[3] = Determination of the optimum pH of the purified D-carbamoylase; format: biochemical; details: pH range 6.5 to 9.0, DL-C-phenylalanine, 30° C., 100 mM buffers
Description: To determine the optimum pH of the purified D-carbamoylase, conversions were carried out at various pH values in a range from 6.5 to 9.0 with DL-C-phenylalanine as the substrate at 30° C. In order to be able to rule out concentration effects, the buffer concentration of all the buffers used (Tris, potassium phosphate and Tris-glycine) was adjusted to a value of 100 mM. The activity maximum of the D-carbamoylase was at pH 8.

For `O=C(O)CN(CCN(CC(=O)O)CC(=O)O)CC(=O)O` [EDTA], the “inactivation of the enzyme by complexing agent” value (purified D-carbamoylase) was “no inactivation”.

Molecule `CC(C)C(NC(N)=O)C(=O)O` (racemic) [D,L-Carbamoyl-valine] has a Rel. act. [1] of 31%.

In the case of β-Ureido-propionate, the Rel. act. [1] is reported as 0% and the “conversion of substrate (in words)” value [1] is reported as “not converted”.

With `C[C@@H](NC(N)=O)C(=O)O` [D-Carbamoyl-alanine] the Rel. act. [1] was 510% and the “conversion relative to all other substrates” value ([1]; compared with all other substrates of table 5) was “at least five times better”.

With `CC(C)[C@H](NC(N)=O)C(=O)O` [L-carbamoyl-valine] the “conversion of substrate (in words)” value [1] was “not converted”.

In the case of `O=C(O)c1ccccc1[N+](=O)[O-]` [2-nitrobenzoate], the “inactivation of the D-carbamoylase by sulfhydryl reagents” value (from here on “inactivation of the D-carbamoylase”) (purified D-carbamoylase; 1 mM) is reported as “complete inactivation”.

With `O=C(O)c1cc[c]([Hg][Cl])cc1` [para-chloro-mercury benzoate] the “inactivation of the D-carbamoylase” value (purified D-carbamoylase; 1 mM) was “complete inactivation”.

`NC(=O)NC(CO)C(=O)O` (racemic) [D,L-Carbamoyl-serine] gave a Rel. act. [1] of 35%.

In the case of `O=C(O)CI` [iodine acetate], the “inactivation of the D-carbamoylase” value (purified D-carbamoylase) is reported as “complete inactivation”.

`CSCCC(NC(N)=O)C(=O)O` (racemic) [D,L-Carbamoyl-methionine] showed a Rel. act. [1] of 13%.

In the case of `O=S(=O)(O)c1ccc(O)c2ncccc12` [8-hydroxyquinolinesulfonic acid], the “inactivation of the enzyme by complexing agent” value (purified D-carbamoylase) is reported as “compete inhibition”.

`NC(=O)N[C@H](Cc1c[nH]c2ccccc12)C(=O)O` [D-Carbamoyl-tryptophan] showed a Rel. act. [1] of 80%.

With `CC(C)(C)C(NC(N)=O)C(=O)O` (racemic) [D,L-Carbamoyl-tert-leucine] the Rel. act. [1] was 18%.

With `NC(=O)N[C@@H](Cc1c[nH]c2ccccc12)C(=O)O` [L-carbamoyl-tryptophan] the “conversion of substrate (in words)” value [1] was “not converted”.

B1: D-carbamoylase from Arthrobacter crystallopoietes DSM 20117 (Crystallibacter crystallopoietes) (protein)
chain: MAKNLMLAVAQVGGIDSSESRPEVVARLIALLEEAASQGAELVVFPELTLTTFFPRTWFEEGDFEEYFDKSMPNDDVAPLFERAKDLGVGFYLGYAELTSDEKRYNTSILVNKHGDIVGKYRKMHLPGHADNREGLPNQHLEKKYFREGDLGFGVFDFHGVQVGMCLCNDRRWPEVYRSLALQGAELVVLGYNTPDFVPGWQEEPHAKMFTHLLSLQAGAYQNSVFVAAAGKSGFEDGHHMIGGSAVAAPSGEILAKAAGEGDEVVVVKADIDMGKPYKESVFDFAAHRRPDAYGIIAERKGRGAPLPVPFNVND
Molecule B1 has a Km [2] of 7.5 mM and a Vmax [2] of 2.4 U/mg.

B2: D-carbamoylase: homogeneously purified recombinant D-carbamoylase from Arthrobacter crystallopoietes DSM 20117 (SEQ ID NO: 2) (protein)
chain: MAKNLMLAVAQVGGIDSSESRPEVVARLIALLEEAASQGAELVVFPELTLTTFFPRTWFEEGDFEEYFDKSMPNDDVAPLFERAKDLGVGFYLGYAELTSDEKRYNTSILVNKHGDIVGKYRKMHLPGHADNREGLPNQHLEKKYFREGDLGFGVFDFHGVQVGMCLCNDRRWPEVYRSLALQGAELVVLGYNTPDFVPGWQEEPHAKMFTHLLSLQAGAYQNSVFVAAAGKSGFEDGHHMIGGSAVAAPSGEILAKAAGEGDEVVVVKADIDMGKPYKESVFDFAAHRRPDAYGIIAERKGRGAPLPVPFNVND
modifications: OTHER INFORMATION: … DNA
In the case of B2, the “activity maximum (optimum pH)” value [3] is reported as 8.
